Assay results: ChEMBL document CHEMBL4041499, “Synthesis and evaluation of 7-substituted coumarin derivatives as multimodal monoamine oxidase-B and cholinesterase inhibitors for the treatment of Alzheimer's disease” (Eur J Med Chem, 2017)

How the values were obtained:
Cholinesterase = Cholinesterase (Equus caballus, UniProt P81908)
Acetylcholinesterase = Acetylcholinesterase (Electrophorus electricus, UniProt O42275)
[1] = biological target: T1, Amine oxidase [flavin-containing] A (Homo sapiens, UniProt P21397); assay type: ADME
T1 sequence (P21397 whole entry): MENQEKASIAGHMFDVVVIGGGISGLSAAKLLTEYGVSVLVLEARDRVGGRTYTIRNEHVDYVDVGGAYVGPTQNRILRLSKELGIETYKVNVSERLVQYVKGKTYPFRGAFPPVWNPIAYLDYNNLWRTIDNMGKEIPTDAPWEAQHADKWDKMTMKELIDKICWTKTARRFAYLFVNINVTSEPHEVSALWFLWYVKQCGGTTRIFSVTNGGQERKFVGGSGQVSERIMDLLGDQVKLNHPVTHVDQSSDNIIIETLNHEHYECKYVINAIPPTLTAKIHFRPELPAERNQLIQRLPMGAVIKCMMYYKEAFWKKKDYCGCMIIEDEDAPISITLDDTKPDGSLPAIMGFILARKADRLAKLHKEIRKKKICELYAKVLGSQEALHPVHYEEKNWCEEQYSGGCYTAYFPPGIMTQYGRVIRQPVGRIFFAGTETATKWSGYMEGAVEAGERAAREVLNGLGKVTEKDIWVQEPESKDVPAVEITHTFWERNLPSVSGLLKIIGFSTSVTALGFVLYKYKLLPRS
Description: Inhibition of recombinant human MAO-A assessed as reduction in 4-hydroxyquinolone production using kynuramine as substrate after 20 mins by fluorescence assay

Sequence of Cholinesterase (P81908 whole entry): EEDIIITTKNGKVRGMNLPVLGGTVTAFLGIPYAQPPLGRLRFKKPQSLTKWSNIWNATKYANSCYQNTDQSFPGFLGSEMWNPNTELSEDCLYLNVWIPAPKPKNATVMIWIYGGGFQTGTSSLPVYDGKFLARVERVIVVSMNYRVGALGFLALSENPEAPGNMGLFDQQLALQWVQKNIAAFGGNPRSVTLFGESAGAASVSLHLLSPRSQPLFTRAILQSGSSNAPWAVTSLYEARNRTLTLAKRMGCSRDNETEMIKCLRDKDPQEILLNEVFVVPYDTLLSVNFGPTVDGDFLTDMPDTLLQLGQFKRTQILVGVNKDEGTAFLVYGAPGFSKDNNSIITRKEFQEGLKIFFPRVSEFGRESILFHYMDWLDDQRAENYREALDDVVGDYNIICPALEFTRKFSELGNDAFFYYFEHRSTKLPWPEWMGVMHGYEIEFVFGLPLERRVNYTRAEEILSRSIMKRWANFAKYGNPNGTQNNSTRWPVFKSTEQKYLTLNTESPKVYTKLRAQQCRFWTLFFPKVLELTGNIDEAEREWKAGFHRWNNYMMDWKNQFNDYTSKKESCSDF
Sequence of Acetylcholinesterase (O42275 whole entry): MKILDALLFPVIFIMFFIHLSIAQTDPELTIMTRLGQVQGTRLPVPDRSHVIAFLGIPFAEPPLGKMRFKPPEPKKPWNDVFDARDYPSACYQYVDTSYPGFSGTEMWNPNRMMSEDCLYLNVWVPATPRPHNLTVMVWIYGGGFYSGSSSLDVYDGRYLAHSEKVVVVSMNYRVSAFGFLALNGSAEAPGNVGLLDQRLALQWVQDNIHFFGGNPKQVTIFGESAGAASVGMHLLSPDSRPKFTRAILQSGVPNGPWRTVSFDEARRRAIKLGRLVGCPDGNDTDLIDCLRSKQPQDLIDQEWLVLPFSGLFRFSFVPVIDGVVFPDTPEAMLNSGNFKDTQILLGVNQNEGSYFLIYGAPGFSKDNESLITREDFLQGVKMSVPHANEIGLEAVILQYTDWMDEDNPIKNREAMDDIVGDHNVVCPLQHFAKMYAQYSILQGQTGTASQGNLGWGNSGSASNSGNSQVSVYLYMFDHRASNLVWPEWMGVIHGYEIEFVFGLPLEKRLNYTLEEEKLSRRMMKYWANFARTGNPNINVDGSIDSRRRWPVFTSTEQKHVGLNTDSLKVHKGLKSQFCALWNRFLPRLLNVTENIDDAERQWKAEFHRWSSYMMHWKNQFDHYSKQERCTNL

## Cc1c(C#N)c(=O)oc2cc(OCc3ccc(Cl)cc3)ccc12
Cholinesterase
  IC50: > 100 µM
Acetylcholinesterase
  IC50: > 100 µM

## O=c1cc(C(F)(F)F)c2ccc(OCCN3CCN(Cc4ccc(Br)cc4)CC3)cc2o1
[1]
  IC50: > 10 µM
Cholinesterase
  IC50: > 100 µM
Acetylcholinesterase
  IC50: > 100 µM

## O=c1ccc2ccc(OCCN3CCCCC3)cc2o1
Acetylcholinesterase
  IC50: 54.9 µM

## O=c1ccc2ccc(OCCN3CCN(Cc4ccc(Br)cc4)CC3)cc2o1
[1]
  IC50: > 10 µM
Cholinesterase
  IC50: 50.1 µM
Acetylcholinesterase
  IC50: > 100 µM

## Cc1c(Cl)c(=O)oc2cc(OCCN3CCC(Cc4ccccc4)CC3)ccc12
[1]
  IC50: > 10 µM
Cholinesterase
  IC50: 1.27 µM
Acetylcholinesterase
  IC50: 31.3 µM

## O=c1ccc2ccc(OCc3ccc(Br)cc3)cc2o1
Cholinesterase
  IC50: > 100 µM
Acetylcholinesterase
  IC50: > 100 µM

## Cc1c(C#N)c(=O)oc2cc(OCc3ccc(Br)cc3Br)ccc12
[1]
  IC50: 0.72 µM
Cholinesterase
  IC50: > 100 µM
Acetylcholinesterase
  IC50: > 100 µM

## O=c1ccc2ccc(OCCN3CCC(Cc4ccccc4)CC3)cc2o1
[1]
  IC50: > 10 µM
Cholinesterase
  IC50: 20.3 µM
Acetylcholinesterase
  IC50: 36.7 µM

## Cc1c(Cl)c(=O)oc2cc(OCc3ccc(Br)cc3)ccc12
Cholinesterase
  IC50: > 100 µM
Acetylcholinesterase
  IC50: > 100 µM

## Cc1c(C#N)c(=O)oc2cc(OCc3ccc(F)cc3)ccc12
Cholinesterase
  IC50: > 100 µM
Acetylcholinesterase
  IC50: > 100 µM

## Cc1cc(=O)oc2cc(OCCN3CCN(Cc4ccc(Br)cc4)CC3)ccc12
[1]
  IC50: > 10 µM
Cholinesterase
  IC50: 9.7 µM
Acetylcholinesterase
  IC50: 12.8 µM

## O=c1cc(C(F)(F)F)c2ccc(OCc3ccc(Br)cc3)cc2o1
[1]
  IC50: > 10 µM
Cholinesterase
  IC50: > 100 µM
Acetylcholinesterase
  IC50: > 100 µM

## Cc1c(C#N)c(=O)oc2cc(OCCN3CCC(Cc4ccccc4)CC3)ccc12
[1]
  IC50: > 10 µM
Cholinesterase
  IC50: 5.9 µM
Acetylcholinesterase
  IC50: 9.1 µM

## Cc1c(C#N)c(=O)oc2cc(OCCN3CCN(Cc4ccc(Br)cc4)CC3)ccc12
[1]
  IC50: > 10 µM
Cholinesterase
  IC50: 13.3 µM
Acetylcholinesterase
  IC50: 38.5 µM

## Cc1c(C#N)c(=O)oc2cc(OCc3ccccc3Br)ccc12
[1]
  IC50: > 10 µM
Cholinesterase
  IC50: > 100 µM
Acetylcholinesterase
  IC50: > 100 µM

## Cc1cc(=O)oc2cc(OCCN3CCCCC3)ccc12
Acetylcholinesterase
  IC50: 66.4 µM

## O=c1cc(C(F)(F)F)c2ccc(OCCN3CCC(Cc4ccccc4)CC3)cc2o1
[1]
  IC50: > 10 µM
Cholinesterase
  IC50: > 100 µM
Acetylcholinesterase
  IC50: > 100 µM

## Cc1c(Cl)c(=O)oc2cc(OCc3ccccc3)ccc12
[1]
  IC50: 2.13 µM
Cholinesterase
  IC50: 0.96 µM
Acetylcholinesterase
  IC50: > 100 µM

## Cc1c(C#N)c(=O)oc2cc(OCc3ccccc3)ccc12
[1]
  IC50: 1.38 µM
Cholinesterase
  IC50: 21.8 µM
Acetylcholinesterase
  IC50: > 100 µM

## Cc1cc(=O)oc2cc(OCCN3CCC(Cc4ccccc4)CC3)ccc12
[1]
  IC50: > 10 µM
Cholinesterase
  IC50: 5.19 µM
Acetylcholinesterase
  IC50: 29.4 µM

## Cc1cc(=O)oc2cc(OCc3ccc(Br)cc3)ccc12
[1]
  IC50: 0.05 µM
Cholinesterase
  IC50: > 100 µM
Acetylcholinesterase
  IC50: > 100 µM

## Cc1c(Cl)c(=O)oc2cc(OCCN3CCN(Cc4ccc(Br)cc4)CC3)ccc12
[1]
  IC50: > 10 µM
Cholinesterase
  IC50: 3.12 µM
Acetylcholinesterase
  IC50: > 100 µM

## Cc1c(C#N)c(=O)oc2cc(OCc3ccc(Br)cc3)ccc12
Cholinesterase
  IC50: > 100 µM
Acetylcholinesterase
  IC50: > 100 µM
